Experimental data: patent publication US11542264B2, “Heteroaromatic NMDA receptor modulators and uses thereof” (Cadent Therapeutics, Inc., priority 2018, dated 2023)
Values after ≈ are worked out from the molar mass of the structure shown.

Columns and labels:
[1] = Aqueous solubility, shake-flask method; assay type: physicochemical; conditions: phosphate buffer saline, pH 7.4, shake-flask, HPLC-UV; for solubility: pH 7.4, aqueous buffer, kinetic from dmso stock
Procedure: The aqueous solubility of the test compound was determined in phosphate buffer saline, pH 7.4, measured by shake-flask method. In this assay, DMSO stock solution of test compound was added to buffer followed by equilibration (shaking), filtration, and determination of soluble amount by HPLC-UV. […] Other imidazopyrazinone comparators from WO 2017/100591 are provided for reference. All comparator analogs are active and potency data is available in WO 2017/100591. This improvement is advantageous because improved aqueous solubility, in one aspect, is anticipated to provide enhanced in vivo performance in humans.

NMDA receptor = conditions: Table 49 of WO 2017/100591; cited from earlier work
[2] = system: impairment of MMN by MK-801; experiment: Mismatch negativity (MMN) efficacy model; conditions: rat, MK-801 0.2 mg/kg, IP
Procedure: Rats implanted with frontal EEG electrodes were presented with different audio stimuli comprising an auditory oddball “flip-flop” protocol. Briefly, 1,000 standard tones of 6.0 kHz were delivered at 90% probability, and 100 deviant tones of 8.0 kHz were delivered at 10% probability in pseudo-random order (the flip sequence), and then this sequence was then repeated with the 8 kHz tone as the standard, and the 6 kHz tone as the deviant (the flop sequence). MMN is calculated as a difference potential obtained by subtracting the averaged 8 kHz standard tone response (flop) from the averaged 8 kHz deviance tone response (flip) at each 1 ms time point over the EEG recording epochs from 50 ms prior to 150 ms after the onset of these 50 ms auditory tones.
Test sessions were comprised of three 20-minute flip-flop blocks.

[3] = system: PCP-induced cognitive impairment; experiment: Rat Novel Object Recognition (NOR) test, PCP-induced cognitive impairment; conditions: PCP 5 mg/kg intraperitoneal twice daily for 7 days, 14-day washout
Procedure: Rats were treated twice daily for 7 days with either saline vehicle (control group) or PCP (5 mg/kg, intraperitoneal). Following a 14-day washout period of no treatment, rats were tested in the NOR paradigm. Briefly, testing involves two sessions (T1 and T2), each lasting 3 minutes, 1 hour apart. […] In T1, rats are placed in a test arena with two identical objects and allowed to freely explore while their time spent exploring each object is recorded. In T2, rats are returned to the test arena where one of the objects remains the same and the other has been replaced with a novel object. The time spent exploring the novel object versus the time spent exploring the familiar object are recorded and compared to T1 object exploration times.

## Cc1nc(-c2ccc(F)c(C(F)(F)F)c2)c2c(=O)n(CC(=O)N3CCC(F)C3)ccn12 (stereo not drawn) [Example 427]
[1]
  solubility: 7 µM (≈ 3.08 µg/mL)

## Cc1nc(-c2ccc(Cl)c(Cl)c2)c2c(=O)n(CC(=O)N3CCC(F)C3)ccn12 (stereo not drawn) [Example 429]
[1]
  solubility: 26 µM (≈ 11 µg/mL)

## Cc1nc(-c2ccc(F)c(Cl)c2)c2c(=O)n(CC(=O)N3CC(C)(F)C3)ccn12 [Example 430]
[1]
  Aqueous solubility: 43 µM

## O=C(Cn1ccn2c(C3CC3)nc(-c3ccc(Cl)c(Cl)c3)c2c1=O)N1CCC(F)C1 (stereo not drawn) [Example 433]
[1]
  solubility: 30 µM (≈ 13.5 µg/mL)

## CC1(F)CN(C(=O)Cn2ccn3c(C4CC4)nc(-c4ccc(Cl)c(Cl)c4)c3c2=O)C1 [Example 435]
[1]
  solubility: 14 µM (≈ 6.29 µg/mL)

## CC1(F)CN(C(=O)Cn2ccn3c(C4CC4)nc(-c4ccc(F)c(Cl)c4)c3c2=O)C1 [Example 436]
[1]
  solubility: 3 µM (≈ 1.3 µg/mL)
NMDA receptor
  % response recovered with Ro 25-6981 and DCKA: 100%

## CC1(F)CN(C(=O)Cn2ccn3c(C4CC4)nc(-c4cnc(Cl)c(Cl)c4)c3c2=O)C1 [Example 437]
[1]
  solubility: 7 µM (≈ 3.15 µg/mL)

## CC1(F)CN(C(=O)Cn2ccn3c(C4CC4)nc(-c4ccc(F)c(C(F)(F)F)c4)c3c2=O)C1 [Example 438]
[1]
  solubility: 2 µM (≈ 0.933 µg/mL)

## Cc1cc(-c2nc(C3CC3)n3ccn(CC(=O)N4CC(C)(F)C4)c(=O)c23)ccc1Cl [Example 443]
[1]
  solubility: 91 µM (≈ 39 µg/mL)

## CC1(F)CN(C(=O)Cn2ccn3cnc(-c4ccc(F)c(Cl)c4)c3c2=O)C1 [Example 445]
[1]
  solubility: 14 µM (≈ 5.5 µg/mL)

## CC1(F)CN(C(=O)Cn2ccn3cnc(-c4ccc(F)c(C(F)(F)F)c4)c3c2=O)C1 [Example 446]
[1]
  solubility: 9 µM (≈ 3.84 µg/mL)

## CC1(F)CN(C(=O)Cn2ccn3cnc(-c4ccc(Cl)c(Cl)c4)c3c2=O)C1 [Example 447]
[1]
  solubility: 69 µM (≈ 28.2 µg/mL)

## C[C@]12N[C@H](Cc3ccccc31)c1ccccc12 [MK-801]
[2]
  MMN after vehicle plus MK-801 compared to vehicle plus saline: significantly impaired MMN

## c1ccc(C2(N3CCCCC3)CCCCC2)cc1 [PCP, phencyclidine]
[3]
  time spent exploring the novel object compared to saline control: significant reduction in time spent exploring the novel object
